Source: article PMC8131363 (Scientific Reports, 2021)
Where two headings read alike, the source gives them in different places.

How the values were obtained:
cCaSR [1] = molecular target: T1, cCaSR (Felis catus, UniProt C7FF08); assay: cCaSR transiently expressed in HEK293/natClytin, agonist luminescence assay; assay type: cell-based; settings: transiently expressed cCaSR; > 3 mM = maximal response not reached; read-out: cCaSR EC50
T1 sequence (C7FF08 1-1081): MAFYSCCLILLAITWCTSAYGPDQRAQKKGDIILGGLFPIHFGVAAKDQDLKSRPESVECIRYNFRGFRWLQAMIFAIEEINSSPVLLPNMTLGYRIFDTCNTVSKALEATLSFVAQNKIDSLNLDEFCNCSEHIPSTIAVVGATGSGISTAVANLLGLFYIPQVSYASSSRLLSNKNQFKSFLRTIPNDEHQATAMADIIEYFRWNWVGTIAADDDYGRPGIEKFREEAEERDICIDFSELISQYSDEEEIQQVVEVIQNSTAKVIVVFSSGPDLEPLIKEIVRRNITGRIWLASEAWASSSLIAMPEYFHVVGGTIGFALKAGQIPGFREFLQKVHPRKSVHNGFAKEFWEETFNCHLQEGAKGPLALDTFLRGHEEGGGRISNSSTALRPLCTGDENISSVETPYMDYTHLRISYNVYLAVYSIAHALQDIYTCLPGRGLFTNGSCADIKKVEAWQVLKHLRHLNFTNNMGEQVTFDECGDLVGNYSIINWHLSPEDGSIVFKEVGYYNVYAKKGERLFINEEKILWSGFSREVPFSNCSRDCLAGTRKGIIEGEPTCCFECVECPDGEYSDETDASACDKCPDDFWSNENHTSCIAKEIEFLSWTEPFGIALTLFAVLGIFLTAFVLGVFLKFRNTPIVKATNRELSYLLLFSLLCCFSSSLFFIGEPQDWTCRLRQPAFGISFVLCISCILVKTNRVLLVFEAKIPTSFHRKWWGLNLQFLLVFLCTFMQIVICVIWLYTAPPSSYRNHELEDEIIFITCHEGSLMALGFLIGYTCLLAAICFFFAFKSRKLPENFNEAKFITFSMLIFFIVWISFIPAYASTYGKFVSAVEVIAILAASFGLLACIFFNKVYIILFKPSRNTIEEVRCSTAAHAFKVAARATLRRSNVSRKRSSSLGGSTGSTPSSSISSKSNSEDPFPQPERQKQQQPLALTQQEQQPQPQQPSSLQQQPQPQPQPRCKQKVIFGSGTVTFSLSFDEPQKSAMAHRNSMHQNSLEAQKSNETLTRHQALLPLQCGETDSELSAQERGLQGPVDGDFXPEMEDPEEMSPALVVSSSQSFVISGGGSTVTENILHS
Method: The coding sequence of the Felis catus[52] and Homo sapiens[53] CaSR gene was synthesised by GeneArt (Thermo Fisher Scientific). The cat coding sequence was excised from the GeneArt construct and inserted in pcDNA3.1 for constitutive and transient expression or pcDNA5/ TO for inducible expression. For the human sequence the pcDNA6 vector as delivered by GeneArt was used without further sub-cloning.
All transient transfections were performed with Lipofectamine 2000 (Invitrogen) according to the manufacturer’s protocol.

domestic short hair cats = assay: two-bottle choice test, cat water panel; assay type: in vivo, Felis catus; settings: for intake of compound solution compared to water: n = 24, 18 h, CaCl2 at 8 mM; for preference for umami amino acid mix with compound vs amino acid mix alone: n = 24, mix 15 mM L-His, 15 mM L-Trp, 15 mM L-Phe
Method: Healthy neutered adult domestic short hair cats (Felis catus) formed the panel for all the choice tests described here (n = 24). […] All the cats taking part in the panel were individually fed dry adult cat food twice per day to their individual Maintenance Energy Requirements (MER). On test days, the cats were housed during 18 h overnight in purpose-built, behaviourally-enriched lodges. During the 18 h exposure, the cats only had access to the water solutions in the two-bottle testing apparatus, however they had free access to drinking water for the rest of the day when they were housed in a social group within an environmentally enriched room. All accommodation complied with the Code of Practice for Animal (Scientific Procedures) Act 1986. All solutions were made with deionised water (Purite, UK). All taste-active substances were food-grade or of the highest available purity. In some cases, salts were purchased instead of the pure compound due to solubility, stability or availability reasons. The in vivo testing was a two-bottle choice test and the methodology was adapted from[23]. All animal studies were in alignment with the Mars Animal Research Policy (Mars.com). These studies follow the 3Rs approach to experimentation with animals in scientific research[59] and were approved by the Waltham Animal Welfare and Ethical Review Board, and all the methods were carried-out in accordance with local guidelines and regulations, including the ARRIVE guidelines. […] The drinkers contained the test solution or the control solution, and the position of the drinkers presented to the cats was changed every day to control for any side bias, and each solution was offered twice to each cat. The cats were also offered at the same time as the water solutions, 50% of their daily food allowance. After 30 min. the food was removed and the cats were left in their individual lodges overnight, with access to the drinkers for 18 h. The next day the drinkers were weighed, and the remaining quantities were recorded as refused amounts. Total intakes were calculated using the difference of the offered and refused amounts. A correction for evaporation and any solution spillage was also performed on each data point. Using a bespoke statistical analysis toolkit, based on R software (R Foundation, Vienna, Austria), a mixed model analysis was performed on the difference in intake (g) between water solutions containing the different taste compound, including cat (random) as a factor and weighting by grouped cat specific variability. This was used to test the mean intake difference versus 0, i.e. no difference, at a 5% level. The mean difference in intake was reported with a 95% confidence interval. All individual tests were then combined into a single model and the difference between the tastant pairs (i.e. both conditions containing the kokumi tastant in water vs. in the umami amino acid mix) were directly compared to measure the impact of the compound on the intake of either water or the umami mix. Any data errors (e.g. following manual error such as solution spillage, overflow) were removed from the final data set for analysis.

cCaSR [2] = molecular target: T1, cCaSR
cCaSR [3] = molecular target: T1, cCaSR; assay: cCaSR PAM luminescence assay, double injection with 0.5 mM CaCl2, HEK293/T-REx/natClytin-cCaSR; settings: Supplementary Table I, PAM assay, dash = no activity
[4] = GSH at 2.5 mM
cCaSR [5] = molecular target: T1, cCaSR; assay: cell-based
[6] = read-out: cCaSR activity, agonist assay, stable inducible cCaSR line, at least three wells
[7] = read-out: cCaSR stable EC50, stably expressed cCaSR, Fig. 6b, > 3 mM = maximal response not reached

Row | EC50 (cCaSR [1]) | EC50 (cCaSR [2]; agonist assay, stable inducible cCaSR line, > 0.01 M = maximal response not reached) | EC50 (cCaSR [2]; read-out: EC50 Ago, Supplementary Table I, agonist assay, > 0.01 M = maximal response not reached) | EC50 (cCaSR [2]; [6]) | EC50 (cCaSR [2]; [7]) | EC50 PAM (M) (cCaSR [3]) | pH of solution [4] | EC50 (cCaSR [5]; EC50 (M), agonist assay, stable inducible cCaSR line, > 0.01 M = maximal response not reached) | EC50 (cCaSR [5]; EC50 Ago (M), Supplementary Table I, agonist assay, > 0.01 M = maximal response not reached) | EC50 (cCaSR [5]; cCaSR activity, agonist assay, stable inducible cCaSR line, at least three wells) | EC50 (cCaSR [5]; cCaSR stable EC50(mM), stably expressed cCaSR, Fig. 6b, > 3 mM = maximal response not reached) | SMILES | intake of compound solution compared to water (domestic short hair cats) | preference for umami amino acid mix with compound vs amino acid mix alone (domestic short hair cats)
1 | 1.15 mM | 1.62 mM | 1.62 mM | 1 to 10 mM | 1.47 mM | - |  |  |  |  |  | [Ca+2].[Cl-].[Cl-] [Ca^2+, CaCl2] | no significant difference | significant preference
2 | > 3 mM |  |  |  |  | - | 3.48 | 0.00639 M | 0.0064 M | 0.001 to 0.01 M | > 0.003 M | N[C@@H](CCC(=O)N[C@@H](CS)C(=O)NCC(=O)O)C(=O)O [Glutathione] | significantly lower acceptance | no statistically significant difference
3 | 8.6 mM |  |  | > 10 mM | > 3 mM | - |  |  |  |  |  | [Cl-].[Cl-].[Mg+2] [Mg^2+, MgCl2] | significantly lower acceptance | significantly rejected
